Patent US7576085B2, “Imidazopyrazines as cyclin dependent kinase inhibitors” (Schering Corporation, priority 2002, dated 2009)

What was measured:
[1] = biological target: T1, CDK2 (cyclin A or cyclin E) (Homo sapiens, UniProt P24941); experiment: CDK2 in vitro kinase assay (cyclin A or cyclin E dependent), SPA with biotinylated Histone H1 peptide; type: biochemical; details: for inhibition at 0.05 µg/mL: compound at 0.05 ug/mL, read-out: % INH @ 0.05 ug/mL; for inhibition at 0.5 µg/mL: compound at 0.5 ug/mL, read-out: % INH @ 0.5 ug/mL; for IC50: CDK2 with cyclin A or cyclin E, 33P-ATP SPA, 1 hour at room temperature
T1 construct: The expressed protein was approximately 34 kDa in size; made in house; host or cells: SF9 insect cells (recombinant baculovirus, pFASTBAC)

| melting point [°C] | Compound | IC50 [1] [nM] | other results |
| --- | --- | --- | --- |
| 143 to 145 | Cc1cnc2c(NCc3cccnc3)nccn12 |  |  |
|  | Clc1ccccc1-c1cn2c(Br)cnc2c(NCCCn2cccc2)n1 |  | inhibition at 0.05 µg/mL [1]: 42.2%; inhibition at 0.5 µg/mL [1]: 48.8% |
|  | COCCCNc1nc(-c2ccccc2Cl)cn2c(Br)cnc12 |  | inhibition at 0.05 µg/mL [1]: 30.7%; inhibition at 0.5 µg/mL [1]: 71.5% |
|  | Clc1ccccc1-c1cn2c(Br)cnc2c(NCc2ccncc2)n1 | 490 |  |
|  | Cc1cnc2c(Nc3ccccc3)nccn12 [drawing 711] | 15000 |  |
|  | Clc1ccccc1-c1cn2c(Br)cnc2c(NCCCn2ccnc2)n1 |  | inhibition at 0.05 µg/mL [1]: 37.5%; inhibition at 0.5 µg/mL [1]: 29.4% |
|  | CC(CO)Nc1nc(-c2ccccc2Cl)cn2c(Br)cnc12 (stereo not shown) | 200 | inhibition at 0.05 µg/mL [1]: 63%; inhibition at 0.5 µg/mL [1]: 92.7% |
| 175 to 177 | O=C(c1cccc(C(F)(F)F)c1)N1CCC(Nc2nc(-c3ccccc3Cl)cn3c(Br)cnc23)CC1 |  |  |
| 204 to 206 | Ic1cnc2c(NCc3cccnc3)nc(-c3ccccc3)cn12 |  |  |
| 186 to 188 | Cc1cnc2c(NC(c3ccccc3)c3ccccc3)nccn12 |  |  |
| 169 to 170 | Brc1cnc2c(Nc3ccccc3)nc(-c3ccccc3)cn12 |  |  |
|  | c1ccc(-c2cn3c(-c4ccccc4)cnc3c(NCc3cccnc3)n2)cc1 | 6700 |  |
|  | Clc1ccccc1-c1cn2c(I)cnc2c(NCc2cccnc2)n1 | 230 |  |
| 152 to 154 | Cc1cnc2c(NCc3ccccc3)nccn12 |  |  |
|  | Cc1cnc2c(NCc3ccncc3)nccn12 [drawing 712] | 22500 |  |
|  | Ic1cnc2c(NCc3ccncc3)nc(-c3ccccc3)cn12 [drawing 714] | 530 |  |
|  | FC(F)(F)c1ccc(CNc2nc(-c3ccccc3)cn3c(Br)cnc23)cn1 | 4550 |  |
|  | Clc1ccccc1-c1cn2c(Br)cnc2c(NCc2cccnc2)n1 | 240 | inhibition at 0.05 µg/mL [1]: 47.4%; inhibition at 0.5 µg/mL [1]: 88.6% |
| 145 to 146 | Brc1cnc2c(NC3CCCCC3)nc(-c3ccccc3)cn12 |  |  |
|  | O=C1CCCN1CCCNc1nc(-c2ccccc2Cl)cn2c(Br)cnc12 |  | inhibition at 0.05 µg/mL [1]: 30.7%; inhibition at 0.5 µg/mL [1]: 67.8% |
|  | Brc1cnc2c(NCCc3cccnc3)nc(-c3ccccc3)cn12 [drawing 713] | 4180 |  |
| 162 to 164 | Clc1ccccc1-c1cn2c(I)cnc2c(NCc2ccncc2)n1 |  |  |
| 104 to 105 | COCCNc1nccn2c(C)cnc12 |  |  |
|  | CC(=O)c1cnc2c(NCc3cccnc3)nc(-c3ccccc3)cn12 | 4700 |  |
|  | Clc1ccccc1-c1cn2c(Cl)cnc2c(NCc2cccnc2)n1 [drawing 718] | 430 |  |
| 130 to 132 | Cc1cnc2c(NCCc3ccncc3)nccn12 |  |  |
| 177 to 179 | Brc1cnc2c(NCCc3ccncc3)nc(-c3ccccc3)cn12 |  |  |

| Compound | melting point [°C] | IC50 [1] [nM] | other results |
| --- | --- | --- | --- |
| Cc1cnc2c(Nc3ccccc3)nccn12 | 182 to 184 |  |  |
| Brc1cnc2c(NCCc3cccnc3)nc(-c3ccccc3)cn12 | 120 to 122 |  |  |
| Ic1cnc2c(NCc3ccncc3)nc(-c3ccccc3)cn12 | 139 to 141 |  |  |
| Clc1ccccc1-c1cn2c(Cl)cnc2c(NCc2cccnc2)n1 | 127 to 129 |  |  |
| Cc1cnc2c(NCc3ccncc3)nccn12 | 183 to 185 |  |  |
